Here are results for one molecule from patent publication US20170079970A1, “TETRAHYDROQUINOLINE DERIVATIVES AND THEIR USE AS EPAC1 INHIBITORS FOR THE TREATMENT OF MYOCARDIAL INFARCTION INJURY” (INSERM (INSTITUT NATIONAL DE LA SANTÉ ET DE LA RECHERCHE …, priority 2014, published 2017).

The test relates to Isolated mouse adult cardiomyocytes. Briefly: Hypoxia and hypoxia-reoxygenation induced cardiomyocyte death, LDH release. In kind it is cell-based. The conditions noted are these: pretreated with 10 μM. The procedure: FIG. 4. A pharmacological inhibitor of Epac1, R-CE3F4 prevents hypoxia and hypoxia-reoxygenation induced cardiomyocyte death. Isolated mouse adult cardiomyocytes, pretreated or not with either 10 μM R-CE3F4 or its analogue ΔCHO (10 μM) were exposed to hypoxia (HX) for 4 h followed by a 2 h of reoxygenation period (HX+R). Cell death was determined by LDH release. Results are expressed as means±S.E.M. The bar graph represents the average of 5 independent experiments performed in triplicate. Statistical significance was determined by 2-way ANOVA. * P<0.05 compared with indicated values.
Myocardial infarction was induced in wild-type (WT) versus Epac1^−/− littermates by left anterior descending coronary artery (LAD) ligation for 24 h. Ischemia/Reperfusion was induced by the left anterior descending coronary artery occlusion for 45 min and followed by 24 h of reperfusion. The area at risk (AAR) and infarct size were evaluated by Evans blue and TTC staining, respectively. […] Isolated mouse adult cardiomyocytes pretreated with either R-CE3F4 or (ΔCHO) were exposed to hypoxia (HX) for 4 h followed by a 2 h of reoxygenation period (HX+R). Cell death was determined by LDH release.

For `C[C@@H]1CCc2c(cc(Br)c(F)c2Br)N1C=O` [R-CE3F4], where the note is “hypoxia 4 h followed by 2 h reoxygenation (HX+R)”, the “HX+R-induced cardiomyocyte death (LDH release)” value is given as “significantly prevented”. Further, the “HX-induced cardiomyocyte death (LDH release)” value (hypoxia (HX) for 4 h) is given as “significantly prevented”.
